Where a name gives a salt, the structure may show the parent alone.
target: recombinant HDAC1 (Homo sapiens, UniProt Q13547); assay: Recombinant HDAC activity assay; format: biochemical; details: 2 h, read-out: % HDAC activity, Class I HDACs, 1
Sequence (Q13547 whole entry): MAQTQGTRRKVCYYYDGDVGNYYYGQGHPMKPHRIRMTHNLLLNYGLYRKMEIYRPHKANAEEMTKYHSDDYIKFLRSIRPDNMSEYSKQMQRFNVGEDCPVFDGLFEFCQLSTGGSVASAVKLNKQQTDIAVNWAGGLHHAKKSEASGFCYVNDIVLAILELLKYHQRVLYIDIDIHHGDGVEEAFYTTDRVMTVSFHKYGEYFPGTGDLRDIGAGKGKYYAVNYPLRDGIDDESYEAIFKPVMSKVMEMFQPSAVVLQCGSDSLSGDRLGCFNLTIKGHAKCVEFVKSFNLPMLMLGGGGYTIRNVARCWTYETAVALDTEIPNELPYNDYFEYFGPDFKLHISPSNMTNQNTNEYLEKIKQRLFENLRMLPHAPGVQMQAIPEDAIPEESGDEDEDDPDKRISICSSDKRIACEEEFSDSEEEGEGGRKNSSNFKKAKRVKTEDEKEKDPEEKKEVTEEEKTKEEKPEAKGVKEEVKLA

remaining activity at 50 µM	SMILES
89%	O=C(O)[C@H]1O[C@@H](Oc2cc3oc(-c4ccccc4)cc(=O)c3c(O)c2O)[C@H](O)[C@@H](O)[C@@H]1O [Baicalin]
50.5%	COc1ccc2cc3[n+](cc2c1OC)CCc1cc2c(cc1-3)OCO2 [Berberine HCl, berberine hydrochloride]

target: recombinant HDAC2 (Homo sapiens, UniProt Q92769); assay: Recombinant HDAC activity assay; format: biochemical; details: 2 h, read-out: % HDAC activity, Class I HDACs, 2
Sequence (Q92769 whole entry): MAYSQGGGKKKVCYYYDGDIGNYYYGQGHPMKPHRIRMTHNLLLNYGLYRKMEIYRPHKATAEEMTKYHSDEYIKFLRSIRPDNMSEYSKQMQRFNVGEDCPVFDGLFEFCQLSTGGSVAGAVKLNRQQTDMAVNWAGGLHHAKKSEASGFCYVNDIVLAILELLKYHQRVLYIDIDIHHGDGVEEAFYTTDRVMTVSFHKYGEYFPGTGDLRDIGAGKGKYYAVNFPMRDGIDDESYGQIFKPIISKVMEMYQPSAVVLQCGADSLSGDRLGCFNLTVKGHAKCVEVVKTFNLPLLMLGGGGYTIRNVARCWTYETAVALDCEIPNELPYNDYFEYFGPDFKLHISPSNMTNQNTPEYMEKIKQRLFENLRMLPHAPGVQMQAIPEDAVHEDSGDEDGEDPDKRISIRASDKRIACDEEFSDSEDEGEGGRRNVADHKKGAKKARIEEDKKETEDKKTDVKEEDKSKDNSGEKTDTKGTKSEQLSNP

remaining activity at 50 µM	SMILES
72.9%	O=C(O)[C@H]1O[C@@H](Oc2cc3oc(-c4ccccc4)cc(=O)c3c(O)c2O)[C@H](O)[C@@H](O)[C@@H]1O [Baicalin]
70.3%	COc1ccc2cc3[n+](cc2c1OC)CCc1cc2c(cc1-3)OCO2 [Berberine HCl, berberine hydrochloride]

target: recombinant HDAC3 (Homo sapiens, UniProt O15379); assay: Recombinant HDAC activity assay; format: biochemical; details: 2 h, read-out: % HDAC activity, Class I HDACs, 3
Sequence (O15379 whole entry): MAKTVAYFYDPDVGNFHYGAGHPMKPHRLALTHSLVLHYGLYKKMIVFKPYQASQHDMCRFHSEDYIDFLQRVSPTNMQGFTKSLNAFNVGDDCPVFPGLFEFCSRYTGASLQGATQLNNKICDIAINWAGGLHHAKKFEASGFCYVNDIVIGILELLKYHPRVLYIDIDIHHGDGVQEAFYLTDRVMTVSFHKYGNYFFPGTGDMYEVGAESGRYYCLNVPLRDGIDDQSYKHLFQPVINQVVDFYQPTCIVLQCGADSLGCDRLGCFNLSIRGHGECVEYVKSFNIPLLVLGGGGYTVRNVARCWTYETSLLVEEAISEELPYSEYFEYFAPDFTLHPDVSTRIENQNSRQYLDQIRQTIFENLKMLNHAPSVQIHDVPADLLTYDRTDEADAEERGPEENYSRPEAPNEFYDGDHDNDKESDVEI
Sequence (Q9Y618 395-489 partner limits assumed): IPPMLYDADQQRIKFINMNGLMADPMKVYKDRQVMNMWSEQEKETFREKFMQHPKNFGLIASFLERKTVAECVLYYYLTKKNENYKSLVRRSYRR

remaining activity at 50 µM	SMILES
81.7%	O=C(O)[C@H]1O[C@@H](Oc2cc3oc(-c4ccccc4)cc(=O)c3c(O)c2O)[C@H](O)[C@@H](O)[C@@H]1O [Baicalin]
48.3%	COc1ccc2cc3[n+](cc2c1OC)CCc1cc2c(cc1-3)OCO2 [Berberine HCl, berberine hydrochloride]

target: T1, recombinant HDAC8 (Homo sapiens, UniProt Q9BY41); assay: Recombinant HDAC activity assay; format: biochemical; details: 2 h, read-out: % HDAC activity, Class I HDACs, 8
T1 sequence (Q9BY41 1-377): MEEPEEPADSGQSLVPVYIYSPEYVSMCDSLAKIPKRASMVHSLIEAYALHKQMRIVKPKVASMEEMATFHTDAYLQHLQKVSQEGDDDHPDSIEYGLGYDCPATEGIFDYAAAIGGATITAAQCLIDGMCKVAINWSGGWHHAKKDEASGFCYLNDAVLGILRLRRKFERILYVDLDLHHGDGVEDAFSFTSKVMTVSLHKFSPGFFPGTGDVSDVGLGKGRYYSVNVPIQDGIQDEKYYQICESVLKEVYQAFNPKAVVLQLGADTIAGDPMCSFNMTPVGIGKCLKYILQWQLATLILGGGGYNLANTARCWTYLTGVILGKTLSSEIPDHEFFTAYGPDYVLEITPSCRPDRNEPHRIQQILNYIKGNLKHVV

remaining activity at 50 µM	SMILES
78.3%	O=C(O)[C@H]1O[C@@H](Oc2cc3oc(-c4ccccc4)cc(=O)c3c(O)c2O)[C@H](O)[C@@H](O)[C@@H]1O [Baicalin]
46.8%	COc1ccc2cc3[n+](cc2c1OC)CCc1cc2c(cc1-3)OCO2 [Berberine HCl, berberine hydrochloride]

target: recombinant HDAC5 (Homo sapiens, UniProt Q9UQL6); assay: Recombinant HDAC activity assay; format: biochemical; details: 2 h, read-out: % HDAC activity, Class IIa HDACs, 5
Sequence (Q9UQL6 whole entry): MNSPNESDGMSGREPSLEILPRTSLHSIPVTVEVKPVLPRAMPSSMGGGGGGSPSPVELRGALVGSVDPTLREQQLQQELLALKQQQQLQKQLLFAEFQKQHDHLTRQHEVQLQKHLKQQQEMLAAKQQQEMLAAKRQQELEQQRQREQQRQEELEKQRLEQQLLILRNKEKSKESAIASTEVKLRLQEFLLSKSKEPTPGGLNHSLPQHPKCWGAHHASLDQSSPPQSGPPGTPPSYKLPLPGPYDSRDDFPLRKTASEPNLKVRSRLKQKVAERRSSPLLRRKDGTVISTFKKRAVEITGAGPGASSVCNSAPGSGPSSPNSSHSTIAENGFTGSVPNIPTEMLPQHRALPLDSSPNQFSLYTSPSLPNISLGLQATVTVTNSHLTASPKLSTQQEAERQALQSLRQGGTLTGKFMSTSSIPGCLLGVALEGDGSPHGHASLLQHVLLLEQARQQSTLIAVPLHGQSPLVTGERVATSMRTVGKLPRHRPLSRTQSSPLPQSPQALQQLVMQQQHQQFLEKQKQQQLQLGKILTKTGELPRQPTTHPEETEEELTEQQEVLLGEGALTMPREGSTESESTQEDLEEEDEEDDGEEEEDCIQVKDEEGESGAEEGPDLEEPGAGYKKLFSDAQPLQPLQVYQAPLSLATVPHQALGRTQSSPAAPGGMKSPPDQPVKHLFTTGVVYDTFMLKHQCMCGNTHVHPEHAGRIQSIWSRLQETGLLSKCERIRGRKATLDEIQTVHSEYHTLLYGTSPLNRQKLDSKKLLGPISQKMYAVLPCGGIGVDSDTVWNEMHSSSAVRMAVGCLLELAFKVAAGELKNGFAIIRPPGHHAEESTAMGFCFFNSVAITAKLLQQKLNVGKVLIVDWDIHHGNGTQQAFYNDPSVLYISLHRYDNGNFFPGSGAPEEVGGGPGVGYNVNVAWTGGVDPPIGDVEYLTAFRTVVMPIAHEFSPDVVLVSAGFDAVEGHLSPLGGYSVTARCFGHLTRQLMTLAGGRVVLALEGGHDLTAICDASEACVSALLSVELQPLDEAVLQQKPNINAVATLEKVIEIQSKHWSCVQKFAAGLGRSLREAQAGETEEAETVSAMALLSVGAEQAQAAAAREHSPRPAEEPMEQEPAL

remaining activity at 50 µM	SMILES
81.8%	O=C(O)[C@H]1O[C@@H](Oc2cc3oc(-c4ccccc4)cc(=O)c3c(O)c2O)[C@H](O)[C@@H](O)[C@@H]1O [Baicalin]

target: T2, recombinant HDAC7 (Homo sapiens, UniProt Q8WUI4); assay: Recombinant HDAC activity assay; format: biochemical; details: recombinant protein incubated with 50 µM compound, 2 hrs
T2 sequence (Q8WUI4 1-952): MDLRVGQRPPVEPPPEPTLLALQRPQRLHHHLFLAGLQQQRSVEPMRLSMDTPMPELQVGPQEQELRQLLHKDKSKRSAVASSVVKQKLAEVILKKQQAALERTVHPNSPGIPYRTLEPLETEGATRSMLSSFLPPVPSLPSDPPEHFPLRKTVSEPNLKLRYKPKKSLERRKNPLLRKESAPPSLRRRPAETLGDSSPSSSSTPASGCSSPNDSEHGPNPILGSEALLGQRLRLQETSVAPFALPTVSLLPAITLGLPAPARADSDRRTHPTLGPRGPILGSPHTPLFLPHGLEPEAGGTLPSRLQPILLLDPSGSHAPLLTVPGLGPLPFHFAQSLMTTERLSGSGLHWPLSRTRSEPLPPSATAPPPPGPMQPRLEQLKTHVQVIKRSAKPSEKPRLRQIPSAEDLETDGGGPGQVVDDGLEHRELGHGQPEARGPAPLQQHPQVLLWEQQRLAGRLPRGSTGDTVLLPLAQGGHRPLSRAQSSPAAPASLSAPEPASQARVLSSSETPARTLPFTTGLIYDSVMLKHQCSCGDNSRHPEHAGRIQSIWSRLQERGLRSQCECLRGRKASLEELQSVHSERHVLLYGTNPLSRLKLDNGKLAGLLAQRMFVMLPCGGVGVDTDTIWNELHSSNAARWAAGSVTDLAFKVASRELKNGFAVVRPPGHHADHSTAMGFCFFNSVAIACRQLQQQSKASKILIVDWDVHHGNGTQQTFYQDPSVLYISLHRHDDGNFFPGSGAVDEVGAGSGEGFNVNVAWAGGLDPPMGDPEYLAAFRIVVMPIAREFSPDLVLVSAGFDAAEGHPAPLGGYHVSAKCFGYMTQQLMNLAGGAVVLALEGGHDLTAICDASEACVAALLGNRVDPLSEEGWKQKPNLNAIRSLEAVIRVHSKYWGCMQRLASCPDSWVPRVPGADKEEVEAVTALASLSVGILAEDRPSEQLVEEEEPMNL

% HDAC activity, Class IIa HDACs, 7	SMILES
-	O=C(O)[C@H]1O[C@@H](Oc2cc3oc(-c4ccccc4)cc(=O)c3c(O)c2O)[C@H](O)[C@@H](O)[C@@H]1O [Baicalin]

target: recombinant HDAC9 (Homo sapiens, UniProt Q9UKV0); assay: Recombinant HDAC activity assay; format: biochemical; details: 2 h, read-out: % HDAC activity, Class IIa HDACs, 9
Sequence (Q9UKV0 whole entry): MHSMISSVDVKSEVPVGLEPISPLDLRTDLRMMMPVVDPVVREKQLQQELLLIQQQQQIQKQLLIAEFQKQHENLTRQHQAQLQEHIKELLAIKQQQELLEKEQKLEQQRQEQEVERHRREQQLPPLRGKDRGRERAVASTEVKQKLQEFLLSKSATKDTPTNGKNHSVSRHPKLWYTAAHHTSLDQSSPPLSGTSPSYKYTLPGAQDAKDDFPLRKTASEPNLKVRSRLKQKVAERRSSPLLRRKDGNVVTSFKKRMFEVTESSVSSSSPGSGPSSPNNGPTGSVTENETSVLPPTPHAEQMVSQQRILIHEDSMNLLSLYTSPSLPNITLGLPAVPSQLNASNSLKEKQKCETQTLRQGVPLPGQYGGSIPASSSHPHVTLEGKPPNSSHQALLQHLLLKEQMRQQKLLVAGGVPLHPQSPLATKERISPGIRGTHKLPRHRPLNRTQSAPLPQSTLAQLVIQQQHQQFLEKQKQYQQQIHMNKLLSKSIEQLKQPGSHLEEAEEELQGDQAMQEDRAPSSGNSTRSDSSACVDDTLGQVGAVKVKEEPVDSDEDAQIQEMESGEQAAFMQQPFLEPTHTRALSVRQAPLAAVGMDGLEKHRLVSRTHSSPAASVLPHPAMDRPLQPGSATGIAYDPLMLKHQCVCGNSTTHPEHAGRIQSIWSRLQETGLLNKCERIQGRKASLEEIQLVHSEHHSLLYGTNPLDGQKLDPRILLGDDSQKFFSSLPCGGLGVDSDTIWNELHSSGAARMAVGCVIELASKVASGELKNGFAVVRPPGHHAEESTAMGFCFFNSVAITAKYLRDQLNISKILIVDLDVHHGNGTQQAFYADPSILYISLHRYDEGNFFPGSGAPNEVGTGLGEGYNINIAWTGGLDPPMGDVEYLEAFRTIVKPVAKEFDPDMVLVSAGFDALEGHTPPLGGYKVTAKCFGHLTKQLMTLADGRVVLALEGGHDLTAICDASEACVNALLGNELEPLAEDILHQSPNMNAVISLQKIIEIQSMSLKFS

remaining activity at 50 µM	SMILES
91.5%	O=C(O)[C@H]1O[C@@H](Oc2cc3oc(-c4ccccc4)cc(=O)c3c(O)c2O)[C@H](O)[C@@H](O)[C@@H]1O [Baicalin]

target: T3, recombinant HDAC6 (Homo sapiens, UniProt Q9UBN7); assay: Recombinant HDAC activity assay; format: biochemical; details: 2 h, read-out: % HDAC activity, Class IIb HDACs, 6
T3 sequence (Q9UBN7 1-1215): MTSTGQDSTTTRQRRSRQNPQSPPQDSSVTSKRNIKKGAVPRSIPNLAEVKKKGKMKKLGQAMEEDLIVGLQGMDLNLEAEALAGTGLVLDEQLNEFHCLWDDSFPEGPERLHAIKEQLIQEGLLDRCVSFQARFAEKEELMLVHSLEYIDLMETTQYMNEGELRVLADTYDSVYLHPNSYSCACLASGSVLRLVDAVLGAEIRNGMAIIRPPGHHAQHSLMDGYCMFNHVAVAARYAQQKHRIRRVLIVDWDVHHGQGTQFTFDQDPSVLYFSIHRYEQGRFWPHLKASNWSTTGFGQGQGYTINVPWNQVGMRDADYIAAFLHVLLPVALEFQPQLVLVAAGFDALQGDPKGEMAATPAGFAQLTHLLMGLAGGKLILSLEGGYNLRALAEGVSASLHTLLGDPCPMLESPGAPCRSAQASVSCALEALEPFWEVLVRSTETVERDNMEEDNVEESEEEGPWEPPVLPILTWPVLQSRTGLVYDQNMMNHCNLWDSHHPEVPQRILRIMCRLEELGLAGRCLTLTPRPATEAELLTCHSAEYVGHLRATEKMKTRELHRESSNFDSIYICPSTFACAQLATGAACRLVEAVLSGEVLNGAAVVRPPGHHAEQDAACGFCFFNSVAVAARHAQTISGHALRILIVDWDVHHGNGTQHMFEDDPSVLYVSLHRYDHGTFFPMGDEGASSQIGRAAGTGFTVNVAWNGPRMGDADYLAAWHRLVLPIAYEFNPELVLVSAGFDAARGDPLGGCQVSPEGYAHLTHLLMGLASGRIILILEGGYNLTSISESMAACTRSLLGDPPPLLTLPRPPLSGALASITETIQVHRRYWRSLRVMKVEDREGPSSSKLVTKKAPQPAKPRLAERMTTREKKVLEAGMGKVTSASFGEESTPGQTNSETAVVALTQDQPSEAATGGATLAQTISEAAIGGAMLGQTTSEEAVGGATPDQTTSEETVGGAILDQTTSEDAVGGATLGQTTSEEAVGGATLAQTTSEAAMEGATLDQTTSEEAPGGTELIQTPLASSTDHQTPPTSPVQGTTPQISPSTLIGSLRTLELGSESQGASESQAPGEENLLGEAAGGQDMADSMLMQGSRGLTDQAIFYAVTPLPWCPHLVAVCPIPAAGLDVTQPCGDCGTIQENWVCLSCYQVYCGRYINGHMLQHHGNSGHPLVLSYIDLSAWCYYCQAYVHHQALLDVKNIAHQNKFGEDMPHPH

remaining activity at 50 µM	SMILES
86.2%	O=C(O)[C@H]1O[C@@H](Oc2cc3oc(-c4ccccc4)cc(=O)c3c(O)c2O)[C@H](O)[C@@H](O)[C@@H]1O [Baicalin]
60.9%	COc1ccc2cc3[n+](cc2c1OC)CCc1cc2c(cc1-3)OCO2 [Berberine HCl, berberine hydrochloride]

target: T4, recombinant HDAC10 (Homo sapiens, UniProt Q969S8); assay: Recombinant HDAC activity assay; format: biochemical; details: 2 h, read-out: % HDAC activity, Class IIb HDACs, 10
T4 sequence (Q969S8 1-669): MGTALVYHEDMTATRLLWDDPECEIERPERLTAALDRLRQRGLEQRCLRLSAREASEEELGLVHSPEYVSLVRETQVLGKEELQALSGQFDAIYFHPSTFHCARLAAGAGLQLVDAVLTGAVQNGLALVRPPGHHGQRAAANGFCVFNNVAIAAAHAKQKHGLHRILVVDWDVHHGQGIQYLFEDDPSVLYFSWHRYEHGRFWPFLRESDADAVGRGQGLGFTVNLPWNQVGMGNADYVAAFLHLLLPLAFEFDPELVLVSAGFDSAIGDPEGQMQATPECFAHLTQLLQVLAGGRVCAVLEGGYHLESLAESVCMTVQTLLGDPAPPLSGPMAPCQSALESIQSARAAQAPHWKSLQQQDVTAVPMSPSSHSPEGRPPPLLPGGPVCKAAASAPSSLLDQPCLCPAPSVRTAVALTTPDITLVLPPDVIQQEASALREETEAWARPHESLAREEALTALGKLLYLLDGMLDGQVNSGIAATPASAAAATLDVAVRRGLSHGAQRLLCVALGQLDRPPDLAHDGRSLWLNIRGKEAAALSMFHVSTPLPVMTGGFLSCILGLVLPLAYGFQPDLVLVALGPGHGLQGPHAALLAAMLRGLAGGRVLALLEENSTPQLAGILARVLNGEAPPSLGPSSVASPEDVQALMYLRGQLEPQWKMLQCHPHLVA

remaining activity at 50 µM	SMILES
84.7%	O=C(O)[C@H]1O[C@@H](Oc2cc3oc(-c4ccccc4)cc(=O)c3c(O)c2O)[C@H](O)[C@@H](O)[C@@H]1O [Baicalin]
45%	COc1ccc2cc3[n+](cc2c1OC)CCc1cc2c(cc1-3)OCO2 [Berberine HCl, berberine hydrochloride]
